Results reported in PMC10692721, “Drug discovery for heart failure targeting myosin-binding protein C” (The Journal of Biological Chemistry, 2023).
Read-outs that look alike come from different tables or passages of the source.

Experiments:
[1] = system: FMAL-actin plus TMR-cC0-C2; assay: Selleck library HTS, 473 nm excitation (FLT of FMAL-actin with TMR-cC0-C2, FLT-FRET); assay type: binding, human; conditions: for 473-nm Δτ, Repeat 1 / 473-nm Δτ, Repeat 2: initial screen, 30 μM compound; for 473-nm z-score (based on avg Δτ): robust z-score, hit threshold ±4, 30 μM compound
Procedure, shortened: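 Donor fluorescence lifetime was then recorded. Waveforms were fit to a single exponential, and ΔFLT was obtained after a moving-median plate-gradient correction (half-row window), rescaled by the median DMSO lifetime.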

[2] = system: PKA-phosphorylated TMR-cC0-C2 (cC0-C2#P); assay: FLT-TMR concentration-response assay, PKA-phosphorylated cC0-C2; assay type: binding, human; conditions: for cC0-C2#P FLT change (% change from DMSO, FLT of TMR-MyBP-C): 60 μM compound; for effect on FLT of PKA-phosphorylated TMR-cC0-C2 (in words): concentration-response, no actin
Procedure, shortened: (§1)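 Hits tested at eight concentrations (0.5–100 μM) and read on a high-throughput fluorescence lifetime plate reader. Hill fits applied only under certain conditions.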

[3] = system: TMR-fC1-C2 (C1-C2 of fast skeletal MyBP-C); assay: FLT-TMR concentration-response assay, fC1-C2; assay type: binding; conditions: for cC0-C2/fC1-C2 (ratio of FLT changes) / fC1-C2 FLT change (% change from DMSO, FLT of TMR-MyBP-C): 60 μM compound; for effect on FLT of TMR-fC1-C2 (in words): concentration-response, no actin; for difference in effect on TMR FLT between unphosphorylated TMR-cC0-C2 and TMR-fC1-C2: from Table 3
Procedure, shortened: as §1

[4] = system: TMR-cC0-C2 (C0-C2 fragment of human cMyBP-C); assay: FLT-TMR concentration-response assay (FLT of TMR on cC0-C2, no actin); assay type: binding; conditions: for cC0-C2/cC0-C2#P (ratio of FLT changes) / cC0-C2 FLT change (% change from DMSO, FLT of TMR-MyBP-C): 60 μM compound; for effect on FLT of TMR-cC0-C2 (in words): concentration-response, no actin; for difference in effect on TMR FLT between unphosphorylated and phosphorylated TMR-cC0-C2: from Table 3
Procedure, shortened: as §1

[5] = system: FMAL-actin/PKA-phosphorylated TMR-cC0-C2 interaction; assay: FLT-FRET concentration-response assay, FMAL-actin plus PKA-phosphorylated TMR-cC0-C2; assay type: binding, human
Experimental: (§2) Compounds identified as initial hits were further examined to determine the concentration–response curves for seven conditions ([1]): FMAL-actin alone identified actin-binding compounds that alter the FLT of FMAL-actin ([2]).
(§3) Fluorescence lifetime (FLT) measurements were acquired using a high-throughput FLT plate reader (Fluorescence Innovations, Inc) ([14], [27]), provided by Photonic Pharma LLC. […] The observed waveforms were analyzed as described previously ([15], [28]).
(§4) The primary hits were dissolved in DMSO to make a 10 mM stock solution, which was serially diluted in 96-well mother plates. Hits were screened at eight concentrations (0.5–100 μM). […] Compounds (1 μl) were transferred from the mother plates into 384-well plates using a Mosquito HV liquid handler (TTP Labtech Ltd, Hertfordshire, UK). The same procedure of dispensing as for the pilot screening was applied in the concentration-response assays. Concentration dependence of the FLT-FRET (E/EDMSO) or FLT-TMR (Δτ) change data was fit to a Hill equation only under certain conditions to help guide the eye (Fig. 4).

[6] = system: FMAL-actin/TMR-fC1-C2 interaction; assay: FLT-FRET concentration-response assay, FMAL-actin plus TMR-fC1-C2; assay type: binding
Experimental: as §2, §3, §4

TMR-cC0-C2 = assay: Selleck library HTS, 532 nm excitation (FLT of TMR-cC0-C2 in presence of FMAL-actin); assay type: binding, human; conditions: for 532-nm Δτ, Repeat 1 / 532-nm Δτ, Repeat 2: initial screen, 30 μM compound; for 532-nm z-score (based on avg Δτ): robust z-score, hit threshold ±4, 30 μM compound
[7] = system: FMAL-actin/TMR-cC0-C2 interaction; assay: FLT-FRET concentration-response assay, FMAL-actin plus TMR-cC0-C2; assay type: binding, human; conditions: for effect on FLT-FRET / binding between FMAL-actin and TMR-cC0-C2 (in words): unphosphorylated cC0-C2; for specificity of FLT-FRET effect for unphosphorylated over phosphorylated cC0-C2: effect on cC0-C2 compared to phosphorylated cC0-C2 (Tables 1 and 2)
Procedure, shortened: as §1

Compound | 473-nm Δτ, Repeat 1 [1] | 473-nm Δτ, Repeat 2 [1] | 473-nm z-score (based on avg Δτ) [1] | cC0-C2#P FLT change (% change from DMSO, FLT of TMR-MyBP-C) [2] | effect on FLT of PKA-phosphorylated TMR-cC0-C2 (in words) [2] | cC0-C2/fC1-C2 (ratio of FLT changes) [3] | fC1-C2 FLT change (% change from DMSO, FLT of TMR-MyBP-C) [3] | effect on FLT of TMR-fC1-C2 (in words) [3] | difference in effect on TMR FLT between unphosphorylated TMR-cC0-C2 and TMR-fC1-C2 [3] | cC0-C2/cC0-C2#P (ratio of FLT changes) [4] | cC0-C2 FLT change (% change from DMSO, FLT of TMR-MyBP-C) [4] | effect on FLT of TMR-cC0-C2 (in words) [4] | difference in effect on TMR FLT between unphosphorylated and phosphorylated TMR-cC0-C2 [4] | effect on FLT-FRET / binding between FMAL-actin and PKA-phosphorylated TMR-cC0-C2 (in words) [5] | effect on FLT-FRET / binding between FMAL-actin and TMR-fC1-C2 (in words) [6] | 532-nm Δτ, Repeat 1 (TMR-cC0-C2) | 532-nm Δτ, Repeat 2 (TMR-cC0-C2) | 532-nm z-score (based on avg Δτ) (TMR-cC0-C2) | effect on FLT-FRET / binding between FMAL-actin and TMR-cC0-C2 (in words) [7] | specificity of FLT-FRET effect for unphosphorylated over phosphorylated cC0-C2 [7] | other results
CCC(=O)O[C@H]1[C@H](O[C@@H]2[C@@H](C)[C@H](O[C@H]3C[C@@](C)(OC)[C@@H](O)[C@H](C)O3)[C@@H](C)C(=O)O[C@H](CC)[C@@](C)(O)[C@H](O)[C@@H](C)C(=O)[C@H](C)C[C@@]2(C)O)O[C@H](C)C[C@@H]1N(C)C [Erythromycin estolate] | 0.149 ns | 0.101 ns | 7.01 | −2.4% | decreases | 6.7 | −2.1% | decreases | 6.7 fold | 5.9 | −14.1% | affect | 5.9 fold | decreased | decreased | 0.002 ns | -0.031 ns | -0.86 | decreased | – | effect on FLT of TMR-cC0-C2 (in words) ([4]; listed as Erthromycin estolate): decreases; effect on FLT-FRET / binding between FMAL-actin and PKA-phosphorylated TMR-cC0-C2 (in words) ([5]; listed as Erthromycin estolate): biphasic effect; effect on FLT-FRET / binding between FMAL-actin and TMR-fC1-C2 (in words) ([6]; listed as Erthromycin estolate): biphasic effect; effect on FLT-FRET / binding between FMAL-actin and TMR-cC0-C2 (in words) ([7]; listed as Erthromycin estolate): biphasic effect
Clc1ccc(C(Cn2ccnc2)OCc2ccc(Sc3ccccc3)cc2)c(Cl)c1 (stereo not shown) [Fenticonazole nitrate] | -0.069 ns | -0.104 ns | -4.80 | −6.0% | slightly decreases | 11.8 | 0.4% | does not affect | 11.8 fold | 0.8 | −4.7% | slightly decreases | – | increases | does not have any effect | -0.011 ns | -0.035 ns | -1.35 | does not have any effect | – | preference for increasing the binding of phosphorylated over unphosphorylated cC0-C2 (FLT-FRET) [5]: 5 fold
COc1cc(Nc2ncc(F)c(Nc3ccc4c(n3)N(COP(=O)(O)O)C(=O)C(C)(C)O4)n2)cc(OC)c1OC [Fostamatinib (R788), Fostamatinib] | 0.110 ns | 0.046 ns | 4.40 | 0.7% | – | 5.8 | 0.4% | – | 5.8 fold | 3.3 | 2.3% | affect | 3.3 fold | decreased | decreased | -0.027 ns | -0.063 ns | -2.72 | decreased | 5 fold | –
Tocofersolan | -0.166 ns | -0.159 ns | -9.06 | 3.2% | – | 1.2 | 2.8% | – | – | 1.0 | 3.3% | – | – | no effect | affected the binding to actin | 0.072 ns | 0.065 ns | 4.23 | affected the binding to actin | 13–54 fold | fold effect on increased FRET (or binding) (Table 2) ([7]; comparison not given): fivefold or greater
